Assay results taken from patent US9096518B2, “Substituted hydroxamic acids and uses thereof” (Millennium Pharmaceuticals, Inc., priority 2009, dated 2015).

Target: T1, purified human HDAC6 (Homo sapiens, UniProt Q9UBN7)
T1 construct: purchased BPS Bioscience 5006
T1 sequence (Q9UBN7 1-1215): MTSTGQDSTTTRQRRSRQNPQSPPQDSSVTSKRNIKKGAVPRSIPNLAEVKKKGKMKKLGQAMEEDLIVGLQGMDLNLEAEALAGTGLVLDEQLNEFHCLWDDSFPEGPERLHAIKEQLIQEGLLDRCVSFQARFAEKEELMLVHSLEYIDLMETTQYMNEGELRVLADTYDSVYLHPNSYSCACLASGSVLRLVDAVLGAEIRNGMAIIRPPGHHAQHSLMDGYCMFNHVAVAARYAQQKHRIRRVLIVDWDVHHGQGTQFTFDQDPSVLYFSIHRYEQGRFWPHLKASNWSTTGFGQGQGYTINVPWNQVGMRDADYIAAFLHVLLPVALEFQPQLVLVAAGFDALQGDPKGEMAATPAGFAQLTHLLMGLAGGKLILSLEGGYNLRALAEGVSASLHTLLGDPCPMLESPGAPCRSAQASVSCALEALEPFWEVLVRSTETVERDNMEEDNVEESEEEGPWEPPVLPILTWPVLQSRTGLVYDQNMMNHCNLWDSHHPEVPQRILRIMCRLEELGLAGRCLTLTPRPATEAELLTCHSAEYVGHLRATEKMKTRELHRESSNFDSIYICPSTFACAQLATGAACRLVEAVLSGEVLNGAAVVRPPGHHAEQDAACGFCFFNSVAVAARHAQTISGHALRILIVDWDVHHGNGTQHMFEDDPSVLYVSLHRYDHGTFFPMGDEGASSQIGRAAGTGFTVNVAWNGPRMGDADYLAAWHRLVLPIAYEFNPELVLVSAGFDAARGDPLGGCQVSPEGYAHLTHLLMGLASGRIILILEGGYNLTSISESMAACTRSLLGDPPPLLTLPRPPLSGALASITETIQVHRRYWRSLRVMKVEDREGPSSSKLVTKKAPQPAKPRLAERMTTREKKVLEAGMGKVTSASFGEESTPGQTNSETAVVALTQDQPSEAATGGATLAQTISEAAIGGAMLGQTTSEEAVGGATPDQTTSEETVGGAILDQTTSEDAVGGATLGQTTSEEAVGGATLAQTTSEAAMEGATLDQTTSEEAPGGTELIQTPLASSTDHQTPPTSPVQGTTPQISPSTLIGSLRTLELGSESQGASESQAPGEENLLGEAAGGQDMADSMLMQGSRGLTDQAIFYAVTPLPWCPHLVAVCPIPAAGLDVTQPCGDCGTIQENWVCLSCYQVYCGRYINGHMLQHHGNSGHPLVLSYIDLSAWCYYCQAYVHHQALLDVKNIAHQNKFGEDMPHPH
Test: HDAC6 Enzyme Assay
Type: biochemical
Description: To measure the inhibition of HDAC6 activity, purified human HDAC6 (BPS Bioscience; Cat. No. 5006) is incubated with substrate Ac-Arg-Gly-Lys(Ac)-AMC peptide (Bachem Biosciences; Cat. No. I-1925) for 1 hour at 30° C. in the presence of test compounds or vehicle DMSO control. The reaction is stopped with the HDAC inhibitor trichostatin A (Sigma; Cat. No. T8552) and the amount of Arg-Gly-Lys-AMC generated is quantitated by digestion with trypsin (Sigma; Cat. No. T1426) and subsequent measurement of the amount of AMC released using a fluorescent plate reader (Pherastar; BMG Technologies) set at Ex 340 nm and Em 460 nm. Concentration response curves are generated by calculating the fluorescence increase in test compound-treated samples relative to DMSO-treated controls, and enzyme inhibition (IC50) values are determined from those curves.

| SMILES | IC50 [nM] |
| --- | --- |
| Cn1cccc1C(=O)N1CCc2cc(C(=O)NO)ccc2C1 [Compound 1, N-hydroxy-2-[(1-methyl-1H-pyrrol-2-yl)carbonyl]-1,2,3,4-tetrahydroisoquinoline-6-carboxamide] | < 50 |
| CC(C)(C)C(=O)N1CCc2cc(C(=O)NO)ccc2C1 [Compound 2, 2-(2,2-dimethylpropanoyl)-N-hydroxy-1,2,3,4-tetrahydroisoquinoline-6-carboxamide] | 50 to 100 |
| O=C(NO)c1ccc2c(c1)CCN(C(=O)Cc1ccc(C(F)(F)F)cc1)C2 [Compound 3, N-hydroxy-2-{[4-(trifluoromethyl)phenyl]acetyl}-1,2,3,4-tetrahydroisoquinoline-6-carboxamide] | 50 to 100 |
| O=C(NO)c1ccc2c(c1)CCN(C(=O)C1(c3ccc(Cl)cc3)CCC1)C2 [Compound 4, 2-{[1-(4-chlorophenyl)cyclobutyl]carbonyl}-N-hydroxy-1,2,3,4-tetrahydroisoquinoline-6-carboxamide] | < 50 |
| O=C(NO)c1ccc2c(c1)CCN(C(=O)C1CCCCC1)C2 [Compound 5, 2-(cyclohexylcarbonyl)-N-hydroxy-1,2,3,4-tetrahydroisoquinoline-6-carboxamide] | 50 to 100 |
| Cc1nc(CC(=O)N2CCc3cc(C(=O)NO)ccc3C2)cs1 [Compound 6, N-hydroxy-2-[(2-methyl-1,3-thiazol-4-yl)acetyl]-1,2,3,4-tetrahydroisoquinoline-6-carboxamide] | 100 to 500 |
| O=C(NO)c1ccc2c(c1)CCN(C(=O)c1cnn(-c3ccccc3)c1)C2 [Compound 7, N-hydroxy-2-[(1-phenyl-1H-pyrazol-4-yl)carbonyl]-1,2,3,4-tetrahydroisoquinoline-6-carboxamide] | < 50 |
| O=C(NO)c1ccc2c(c1)CCN(C(=O)c1cc3ccccc3[nH]1)C2 [Compound 8, N-hydroxy-2-(1H-indol-2-ylcarbonyl)-1,2,3,4-tetrahydroisoquinoline-6-carboxamide] | < 50 |
| CC(C)CC(=O)N1CCc2cc(C(=O)NO)ccc2C1 [Compound 9, N-hydroxy-2-(3-methylbutanoyl)-1,2,3,4-tetrahydroisoquinoline-6-carboxamide] | 50 to 100 |
| Cc1ccc(C(C)C(=O)N2CCc3cc(C(=O)NO)ccc3C2)cc1 (centres unmarked) [Compound 10, N-hydroxy-2-[2-(4-methylphenyl)propanoyl]-1,2,3,4-tetrahydroisoquinoline-6-carboxamide] | 50 to 100 |
| O=C(NO)c1ccc2c(c1)CCN(C(=O)c1cccc3ccccc13)C2 [Compound 12, N-hydroxy-2-(1-naphthoyl)-1,2,3,4-tetrahydroisoquinoline-6-carboxamide] | 50 to 100 |
| O=C(NO)c1ccc2c(c1)CCN(C(=O)CCn1ccc3ccccc31)C2 [Compound 13, N-hydroxy-2-[3-(1H-indol-1-yl)propanoyl]-1,2,3,4-tetrahydroisoquinoline-6-carboxamide] | > 500 |
| O=C(NO)c1ccc2c(c1)CCN(C(=O)c1ccc(-n3cccc3)cc1)C2 [Compound 14, N-hydroxy-2-[4-(1H-pyrrol-1-yl)benzoyl]-1,2,3,4-tetrahydroisoquinoline-6-carboxamide] | 50 to 100 |
| O=C(NO)c1ccc2c(c1)CCN(C(=O)Cc1ccccc1)C2 [Compound 15, N-hydroxy-2-(phenylacetyl)-1,2,3,4-tetrahydroisoquinoline-6-carboxamide] | 50 to 100 |
| Cc1noc(C)c1CC(=O)N1CCc2cc(C(=O)NO)ccc2C1 [Compound 16, 2-[(3,5-dimethylisoxazol-4-yl)acetyl]-N-hydroxy-1,2,3,4-tetrahydroisoquinoline-6-carboxamide] | 50 to 100 |
| CC(=O)N[C@H](CC(C)C)C(=O)N1CCc2cc(C(=O)NO)ccc2C1 [Compound 17, 2-[(2R)-2-(acetylamino)-4-methylpentanoyl]-N-hydroxy-1,2,3,4-tetrahydroisoquinoline-6-carboxamide] | 100 to 500 |
| Cc1c(C(=O)N2CCc3cc(C(=O)NO)ccc3C2)cnn1-c1ccccc1 [Compound 18, N-hydroxy-2-[(5-methyl-1-phenyl-1H-pyrazol-4-yl)carbonyl]-1,2,3,4-tetrahydroisoquinoline-6-carboxamide] | 50 to 100 |
| C=CC(C)C(=O)N1CCc2cc(C(=O)NO)ccc2C1 (centres unmarked) [Compound 19, N-hydroxy-2-(2-methylbut-3-enoyl)-1,2,3,4-tetrahydroisoquinoline-6-carboxamide] | 50 to 100 |
| CC(N)(Cc1ccccc1)C(=O)N1CCc2cc(C(=O)NO)ccc2C1 (centres unmarked) [Compound 20, 2-(2-amino-2-methyl-3-phenylpropanoyl)-N-hydroxy-1,2,3,4-tetrahydroisoquinoline-6-carboxamide] | 100 to 500 |
| O=C(NO)c1ccc2c(c1)CCN(C(=O)COc1ccccc1)C2 [Compound 21, N-hydroxy-2-(phenoxyacetyl)-1,2,3,4-tetrahydroisoquinoline-6-carboxamide] | 50 to 100 |
| O=C(NO)c1ccc2c(c1)CCN(C(=O)C1CCCCCC1)C2 [Compound 22, 2-(cycloheptylcarbonyl)-N-hydroxy-1,2,3,4-tetrahydroisoquinoline-6-carboxamide] | 50 to 100 |
| CC1(C(=O)N2CCc3cc(C(=O)NO)ccc3C2)CC1 [Compound 23, N-hydroxy-2-(1-methylcyclopropanecarbonyl)-1,2,3,4-tetrahydroisoquinoline-6-carboxamide] | 50 to 100 |

Results, then the compound that gave them:

| IC50 [nM] | SMILES |
| --- | --- |
| 100 to 500 | O=C(NO)c1ccc2c(c1)CCN(C(=O)C1CCOC1)C2 (centres unmarked) [Compound 24, N-hydroxy-2-(tetrahydrofuran-3-ylcarbonyl)-1,2,3,4-tetrahydroisoquinoline-6-carboxamide] |
| < 50 | O=C(NO)c1ccc2c(c1)CCN(C(=O)CC1CCCC1)C2 [Compound 25, 2-(cyclopentylacetyl)-N-hydroxy-1,2,3,4-tetrahydroisoquinoline-6-carboxamide] |
| 100 to 500 | O=C(NO)c1ccc2c(c1)CCN(C(=O)C1CC=CCC1)C2 (centres unmarked) [Compound 26, 2-(cyclohex-3-en-1-ylcarbonyl)-N-hydroxy-1,2,3,4-tetrahydroisoquinoline-6-carboxamide] |
| < 50 | CC(C)C(C(=O)N1CCc2cc(C(=O)NO)ccc2C1)c1ccccc1 (centres unmarked) [Compound 27, N-hydroxy-2-(3-methyl-2-phenylbutanoyl)-1,2,3,4-tetrahydroisoquinoline-6-carboxamide] |
| 100 to 500 | CC1(C(=O)N2CCc3cc(C(=O)NO)ccc3C2)CCCCC1 [Compound 28, N-hydroxy-2-[(1-methylcyclohexyl)carbonyl]-1,2,3,4-tetrahydroisoquinoline-6-carboxamide] |
| 50 to 100 | C[C@H](C(=O)N1CCc2cc(C(=O)NO)ccc2C1)c1ccccc1 [Compound 29, N-hydroxy-2-[(2S)-2-phenylpropanoyl]-1,2,3,4-tetrahydroisoquinoline-6-carboxamide] |
| < 50 | O=C(NO)c1ccc2c(c1)CCN(C(=O)Cc1ccc(-c3ccccc3)cc1)C2 [Compound 30, 2-(biphenyl-4-ylacetyl)-N-hydroxy-1,2,3,4-tetrahydroisoquinoline-6-carboxamide] |
| 100 to 500 | Cc1cc(C)n(CC(=O)N2CCc3cc(C(=O)NO)ccc3C2)n1 [Compound 31, 2-[(3,5-dimethyl-1H-pyrazol-1-yl)acetyl]-N-hydroxy-1,2,3,4-tetrahydroisoquinoline-6-carboxamide] |
| < 50 | O=C(NO)c1ccc2c(c1)CCN(C(=O)C1CCCC1)C2 [Compound 32, 2-(cyclopentylcarbonyl)-N-hydroxy-1,2,3,4-tetrahydroisoquinoline-6-carboxamide] |
| < 50 | O=C(NO)c1ccc2c(c1)CCN(C(=O)C13CC4CC(CC(C4)C1)C3)C2 [Compound 33, 2-[1-adamantylcarbonyl]-N-hydroxy-1,2,3,4-tetrahydroisoquinoline-6-carboxamide] |
